Experimental data from patent US20260070887A1 (Shenzhen Zhongge Biological Technology Co., Ltd., priority 2022, published 2026).
Like-named read-outs stand apart in the source and are kept apart here.

Legend:
OVCAR-3 cells = assay: OVCAR-3 cell proliferation (Cell Titer-Glo, 10 days); type: cell-based, human
Description: The inhibitory effect on the KIF18A target by the compounds of the present disclosure was evaluated by testing the inhibitory effect on proliferation of OVCAR-3 cells by the compounds of the present disclosure.
The following method was used to determine the effect of the compounds of the present disclosure on the proliferation of human ovarian cancer cells Ovcar-3 (HTB-161, ATCC). Cells were cultured in RPMI-1640 complete medium containing 20% fetal bovine serum, 0.01 mg/mL bovine insulin, 100 U penicillin, and 100 μg/mL streptomycin. The Promega kit Cell Titer-Glo (Cat. No. G7572) was used in this method for test.
For specific steps, reference was made to the kit instructions, and the procedure was outlined below: Test compounds were dissolved in DMSO to prepare a 10 mM stock solution, which was diluted at the predetermined test concentrations, and the test compounds at different concentrations were added to a 384-well cell test plate using ECHO. In the plate pre-added with the test compounds, 400 OVCAR-3 cells in the logarithmic growth phase were seeded per well, ensuring the final concentration of the test compounds in the reaction system ranged between 0.12 nM and 10 μM. The co-culture was maintained in a cell culture incubator for 10 days. Before testing, the cell culture plate was equilibrated for 10 minutes at room temperature, 25 μL of Cell Titer-Glo was added to each well, and the mixture was shaken and mixed well and let stand for 5 minutes. The luminescence values for samples in various wells were read using a microplate reader in Luminescence mode.
The percentage of inhibition of cell proliferation by the test compound at each concentration was calculated by comparing with the values of the control group (0.1% DMSO). The IC50 values of the compounds were obtained by concentration-inhibition rate nonlinear regression analysis of the test compounds using GraphPad Prism 9.

KIF18A = KIF18A (Homo sapiens (Human), UniProt Q8NI77); assay: KIF18A ATPase activity under tubulin stimulation (ADP-Glo assay); type: biochemical; settings: KIF18A 30 nM, ATP 150 μM, pig microtubules
Chain of KIF18A (Q8NI77 whole entry): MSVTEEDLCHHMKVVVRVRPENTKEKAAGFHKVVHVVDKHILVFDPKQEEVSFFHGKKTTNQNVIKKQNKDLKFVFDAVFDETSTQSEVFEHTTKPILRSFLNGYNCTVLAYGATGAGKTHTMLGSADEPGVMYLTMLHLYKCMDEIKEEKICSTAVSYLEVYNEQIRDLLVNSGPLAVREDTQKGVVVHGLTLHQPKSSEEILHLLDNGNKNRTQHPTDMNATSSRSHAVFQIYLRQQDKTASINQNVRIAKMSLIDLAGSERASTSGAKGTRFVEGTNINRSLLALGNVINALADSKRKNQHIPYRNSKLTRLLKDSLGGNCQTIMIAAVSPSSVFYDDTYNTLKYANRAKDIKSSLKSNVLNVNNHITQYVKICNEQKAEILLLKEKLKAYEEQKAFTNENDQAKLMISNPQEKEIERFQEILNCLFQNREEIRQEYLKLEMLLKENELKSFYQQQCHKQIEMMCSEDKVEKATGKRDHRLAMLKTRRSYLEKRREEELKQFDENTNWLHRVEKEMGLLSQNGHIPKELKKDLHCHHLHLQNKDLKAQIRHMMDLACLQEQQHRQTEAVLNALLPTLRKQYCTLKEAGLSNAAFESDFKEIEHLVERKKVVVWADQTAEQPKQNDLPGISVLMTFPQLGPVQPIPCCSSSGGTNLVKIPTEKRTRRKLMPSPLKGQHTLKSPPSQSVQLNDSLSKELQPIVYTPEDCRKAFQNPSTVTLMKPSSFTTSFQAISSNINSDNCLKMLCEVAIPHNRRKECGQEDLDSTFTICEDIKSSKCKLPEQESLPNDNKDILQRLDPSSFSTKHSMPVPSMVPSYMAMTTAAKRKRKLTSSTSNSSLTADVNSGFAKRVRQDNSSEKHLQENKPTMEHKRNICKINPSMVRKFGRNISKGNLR
Chain of KIF18A (P02550 whole entry partner): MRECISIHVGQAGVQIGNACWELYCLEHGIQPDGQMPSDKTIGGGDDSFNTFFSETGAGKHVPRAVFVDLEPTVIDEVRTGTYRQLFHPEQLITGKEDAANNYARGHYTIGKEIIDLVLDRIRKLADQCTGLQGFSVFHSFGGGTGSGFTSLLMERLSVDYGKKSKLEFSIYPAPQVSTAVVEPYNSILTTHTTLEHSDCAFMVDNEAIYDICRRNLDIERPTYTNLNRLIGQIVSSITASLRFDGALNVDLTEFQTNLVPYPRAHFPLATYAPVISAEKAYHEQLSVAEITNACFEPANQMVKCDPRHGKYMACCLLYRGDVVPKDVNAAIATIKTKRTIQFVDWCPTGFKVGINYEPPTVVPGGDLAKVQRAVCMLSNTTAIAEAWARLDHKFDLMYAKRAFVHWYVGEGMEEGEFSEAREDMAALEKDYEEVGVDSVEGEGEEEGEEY
Chain of KIF18A (P02554 whole entry partner): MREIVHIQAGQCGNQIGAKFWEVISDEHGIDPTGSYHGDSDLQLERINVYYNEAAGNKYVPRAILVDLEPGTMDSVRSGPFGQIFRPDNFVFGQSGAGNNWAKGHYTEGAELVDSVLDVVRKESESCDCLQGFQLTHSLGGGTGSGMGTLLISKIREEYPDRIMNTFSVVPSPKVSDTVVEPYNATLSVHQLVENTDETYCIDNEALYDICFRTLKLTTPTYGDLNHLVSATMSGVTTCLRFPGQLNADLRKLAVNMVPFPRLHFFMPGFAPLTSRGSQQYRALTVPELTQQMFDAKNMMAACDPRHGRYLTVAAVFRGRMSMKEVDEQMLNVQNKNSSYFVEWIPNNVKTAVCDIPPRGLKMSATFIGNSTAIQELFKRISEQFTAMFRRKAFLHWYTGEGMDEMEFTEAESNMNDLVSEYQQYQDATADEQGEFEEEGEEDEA

Structure (SMILES) | IC50 (OVCAR-3 cells; Homo sapiens, OVCAR-3, 240 h) | IC50 (KIF18A) | IC50 (OVCAR-3 cells)
COC1c2cc3c(NC(=O)c4ccc(NS(=O)(=O)CCO)cc4N4CCC5(CC4)CC5)ccc(C#N)c3n2CCC1(F)F (centres unmarked) [Compound 428, N-(4-cyano-8,8-difluoro-9-methoxy-6,7,8,9-tetrahydropyridino[1,2-a]indol-1-yl)-4-((2-hydroxyethyl)sulfonamido)-2-(6-azaspiro[2.5]oct-6-yl)benzamide] | 50 to 500 nM | 50 to 500 nM | –
CC1(C)Cn2c(cc3c(NC(=O)c4ccc(NS(=O)(=O)CCO)cc4N4CCC(=C(F)F)CC4)ccc(F)c32)CO1 [Example 520, 2-(4-(difluoromethylene)piperidin-1-yl)-N-(6-fluoro-3,3-dimethyl-3,4-dihydro-1H-[1,4]oxazino[4,3-a]indol-9-yl)-4-((2-hydroxyethyl)sulfonamido)benzamide] | 50 to 500 nM | 50 to 500 nM | –
CC1Cn2c(cc3c(NC(=O)c4ccc(NS(=O)(=O)CCO)cc4N4CCC5(CC4)CC5)cccc32)C(C)O1 (centres unmarked) [Example 312, N-(1,3-dimethyl-3,4-dihydro-1H-[1,4]oxazino[4,3-a]indol-9-yl)-4-((2-hydroxyethyl)sulfonamido)-2-(6-azaspiro[2.5]oct-6-yl)benzamide] | ≤ 50 nM | 50 to 500 nM | –
CC(C)Oc1ccc(NC(=O)c2ccc(NS(=O)(=O)CCO)cc2N2CCC(=C(F)F)CC2)c2cc3n(c12)CC(C)(C)OC3 [Example 532, 2-(4-(difluoromethylene)piperidin-1-yl)-4-((2-hydroxyethyl)sulfonamido)-N-(6-isopropoxy-3,3-dimethyl-3,4-dihydro-1H-[1,4]oxazinyl[4,3-a]indol-9-yl)benzamide] | – | 50 to 500 nM | 50 to 500 nM
O=C(Nc1cccc2c1cc1n2CC(F)(F)CC1)c1ccc(NS(=O)(=O)CCO)cc1N1CCC2(CC1)CC2 [Example 341, N-(7,7-difluoro-6,7,8,9-tetrahydropyridino[1,2-a]indol-1-yl)-4-((2-hydroxyethyl)sulfonamido)-2-(6-azaspiro[2.5]oct-6-yl)benzamide] | 50 to 500 nM | 50 to 500 nM | –
CC1(C)Cn2c(cc3c(NC(=O)c4ccc(NS(=O)(=O)CCO)cc4N4CCC5(CC4)CC5)ccc(OC(F)(F)F)c32)CO1 [Example 573] | 50 to 500 nM | ≤ 50 nM | –
O=C(Nc1cccc2c1CC1COCCN21)c1ccc(NS(=O)(=O)CCO)cc1N1CCC2(CC1)CC2 (centres unmarked) [Compound 411, 4-((2-hydroxyethyl)sulfonamido)-2-(6-azaspiro[2.5]oct-6-yl)-N-(3,4,10,10-tetrahydro-1H-[1,4]oxazino[4,3-a]indol-9-yl)benzamide] | – | 50 to 500 nM | 50 to 500 nM
[2H]C([2H])([2H])OC1c2cc3c(NC(=O)c4ccc(NS(=O)(=O)CCO)cc4N4CCC(=C(F)F)CC4)cccc3n2CCC1(F)F (single isomer, unassigned) [Compound 386-P1, N-(8,8-difluoro-9-(methoxy-d3)-6,7,8,9-tetrahydropyridino[1,2-a]indol-1-yl)-2-(4-(difluoromethylene)piperidin-1-yl)-4-((2-hydroxyethyl)sulfonamido)benzamide] | – | 500 to 5000 nM | 500 to 5000 nM
COc1ccc(NC(=O)c2ccc(NS(=O)(=O)CCO)cc2N2CCC3(CC2)CC3)c2nc3n(c12)CC(C)(C)OC3 [Example 488] | – | 50 to 500 nM | ≤ 50 nM
CC1(C)Cn2c(cc3c(NC(=O)c4ccc(NS(=O)(=O)CCO)cc4N4CCC5(CC4)CC5)ccc(Cl)c32)CO1 [Example 521, 2-(6-azaspiro[2.5]oct-6-yl)-N-(6-chloro-3,3-dimethyl-3,4-dihydro-1H-[1,4]oxazino[4,3-a]indol-9-yl)-4-{[(2-hydroxyethyl)sulfonamide]}benzamide] | – | 50 to 500 nM | 50 to 500 nM
Cc1cc(NC(=O)c2ccc(NS(=O)(=O)CCO)cc2N2CCC(=C(F)F)CC2)c2cc3n(c2c1)CC(C)(C)OC3 [Example 467, 2-(4-(difluoromethylene)piperidin-1-yl)-4-((2-hydroxyethyl)sulfonamide)-N-(3,3,7-trimethyl-3,4-dihydro-1H-[1,4]oxazino[4,3-a]indol-9-yl)benzamide] | – | 50 to 500 nM | 50 to 500 nM
[2H]C([2H])([2H])Oc1ccc(NC(=O)c2ccc(NS(=O)(=O)CCO)cc2N2CCC(=C(F)F)CC2)c2cc3n(c12)CC(C)(C)OC3 [Example 576] | ≤ 50 nM | 50 to 500 nM | –
COc1ccc(NC(=O)c2ccc(NS(=O)(=O)CCO)cc2N2CCC(=C(F)F)CC2)c2cc3n(c12)CCC(F)(F)C3 [Example 477, N-(8,8-difluoro-4-methoxy-6,7,8,9-tetrahydropyridino[1,2-a]indol-1-yl)-2-(4-(difluoromethylene)piperidin-1-yl)-4-((2-hydroxyethyl)sulfonamido)benzamide] | ≤ 50 nM | 50 to 500 nM | –
CCNC(=O)c1ccc(NC(=O)c2ccc(NS(=O)(=O)CCO)cc2N2CCC3(CC2)CC3)c2cc3n(c12)CC(C)(C)OC3 [Example 527] | ≤ 50 nM | 50 to 500 nM | –
COc1ccc(NC(=O)c2ccc(NS(=O)(=O)CCO)cc2N2CCC3(CC2)CC3)c2cc3n(c12)CCC(F)(F)C3OC (centres unmarked) [Example 479, N-(8,8-difluoro-4,9-dimethoxy-6,7,8,9-tetrahydropyridino[1,2-a]indol-1-yl)-4-((2-hydroxyethyl)sulfonamido)-2-(6-azaspiro[2.5]oct-6-yl)benzamide] | 50 to 500 nM | 50 to 500 nM | –

Continued, in another order:

IC50 (OVCAR-3 cells; Homo sapiens, OVCAR-3, 240 h) | IC50 (KIF18A) | Structure (SMILES) | IC50 (OVCAR-3 cells)
50 to 500 nM | ≤ 50 nM | O=C(Nc1ccc(OC(F)(F)F)c2c1cc1n2CCC(F)(F)C1)c1ccc(NS(=O)(=O)CCO)cc1N1CCC2(CC1)CC2 [Example 582] | –
≤ 50 nM | 50 to 500 nM | [2H]C([2H])([2H])Oc1ccc(NC(=O)c2ccc(NS(=O)(=O)CCO)cc2N2CCC3(CC2)CC3)c2cc3n(c12)CC(C)(C)OC3 [Example 575] | –
500 to 5000 nM | 50 to 500 nM | O=C(Nc1ccc2c(c1)N1CCC(F)(F)CC1CO2)c1ccc(NS(=O)(=O)CCO)cc1N1CCC(=C(F)F)CC1 (centres unmarked) [Compound 399] | –
– | ≤ 50 nM | O=C(Nc1ccc(NS(=O)(=O)CCO)cc1N1CCC2(CC1)CC2)c1cccc2c1cc1n2CCOC1 [Example 357] | 50 to 500 nM
≤ 50 nM | 50 to 500 nM | N#Cc1ccc(NC(=O)c2ccc(NS(=O)(=O)CCO)cc2N2CCC3(CC2)CC3)c2cc3n(c12)CCC(F)(F)C3O (centres unmarked) [Example 438, N-(4-cyano-8,8-difluoro-9-hydroxy-6,7,8,9-tetrahydropyridino[1,2-a]indol-1-yl)-4-((2-hydroxyethyl)sulfonamido)-2-(6-azaspiro[2.5]oct-6-yl)benzamide] | –
50 to 500 nM | ≤ 50 nM | O=C(Nc1cc(F)cc2c1cc1n2CCOC1)c1ccc(NS(=O)(=O)CCO)cc1N1CCC(=C(F)F)CC1 [Example 367, 2-(4-(difluoromethylene)piperidin-1-yl)-N-(7-fluoro-3,4-dihydro-1H-[1,4]oxazino[4,3-a]indol-9-yl)-4-((2-hydroxyethyl)sulfonamido)benzamide] | –
50 to 500 nM | ≤ 50 nM | O=C(Nc1cccc2c1cc1n2CCCC1O)c1ccc(NS(=O)(=O)CCO)cc1N1CCC2(CC1)CC2 (centres unmarked) [Example 342, N-(9-hydroxy-6,7,8,9-tetrahydropyridino[1,2-a]indol-1-yl)-4-((2-hydroxyethyl)sulfonamido)-2-(6-azaspiro[2.5]octan-6-yl)benzamide] | –
